Laboratory results reported in patent US4952393A, “Organ infarct imaging with technetium labelled glucarate” (The General Hospital Corporation, priority 1988, dated 1990).
Read-outs that look alike come from different tables or passages of the source.

How the values were obtained:
myocardial infarct = conditions: Rossman et al., J. Nucl. Med. 16: 980-985 (1975); cited from earlier work
[1] = room temperature, 1 hr
Description: Monopotassium glucarate (25 mg) was dissolved in 0.2M bicarbonate (1.0 ml) at pH 8.0. To 500 ul of glucarate solution, 40 ul of stannous chloride (2.5 mg/ml) in 0.1M acetic acid was added, followed by 500 ul of ^99m Tc generator eluate (60 mCi). The resulting solution was allowed to stand for 5 minutes at room temperature, and then analyzed for radiochemical purity by paper chromatography (Whatman 3MM, 60% CH3 CN:40% H2 O)
^99m Tc-glucarate was prepared as described in Example 1 using different concentrations of potassium glucarate (0.09-12.25 mg/ml). The products were analyzed by paper chromatography (Whatman 3MM, 60% CH3 CN:40%H2 O; ^99m TcO4 ^-Rf= 1.0, ^99m Tc-glucarate,Rf=0.4; ^99m TcO2 ×H2 O, Rf=0).

acute myocardial infarct = assay: Detection of myocardial infarct in the dog (gamma camera imaging); conditions: for visualization of area of acute myocardial necrosis / blood pool activity: 80 minutes after injection; for visualization of area of acute myocardial necrosis: 10 mCi
Description: Mongrel dogs (n=3) were anesthetized with intravenous pentobartitol (30 mg/kg), and respiration maintained on a Harvard respirator. Left thoractomy was performed, the heart suspended in a pericardial cradle and a segment of the left anterior descending coronary artery (LAD) approximately two thirds the distance from the apex to the base was dissected free. The LAD was then occluded with a silk ligature. After three hours of LAD occlusion, the occlusive ligature was removed and reperfusion was established. At 15 minutes of reperfusion, 200 uCi of indium labeled R11D10 Fab-DTPA (Centocor, Inc.) was injected, and 30 seconds later, 10 mCi of technetium labeled glucarate was injected. Serial imaging with a gamma camera was initiated immediately upon tracer administration.
After 5 hours of in vivo imaging sessions, the dogs were sacrificed by pentobarbital overdose. Then, the cardiac tissue was stained with an intravenous triphenyltetrazolium chloride infusion. The heart was excised, washed with cold water, and imaged as a whole excised heart; and also as heart slices cut parallel to the atrioventricular groove in four slices after overnight storage at 4° C. Each slice was then divided into eight equal pieces and each piece subdivided into epicardial and endocardial samples, weighed and then counted in a gamma well counter (LKB Compu Gamma counter) for distribution of the various radioisotopes. […] Blood samples from the contralateral vein were obtained at 1, 2, 3, 4, 5, 10, 15, 20, 30, 45, 60, and 75 minutes. […] At the time of sacrifice, tissue samples from the liver, lungs, kidneys, spleen, and skeletal muscles were also obtained.

[2] = Biodistribution of 99mTc-glucarate in various organs in Balb/c mice; format: in vivo; conditions: i.v., 100 uCi
Description: Biodistribution studies were carried out in Balb/c mice. The mice (3 mice per group) were injected intravenously with 100 uCi of technetium-labeled D-glucarate. […]

[3] = preparation made from 12 mg/ml glucarate
Description: Samples of ^99m -Tc-glucarate prepared as described in Example 1 from 6 and 12 mg/ml potassium glucarate were analyzed over a period of 7 hours.

cerebral infarct = assay: Detection of cerebral infarct in the rat (gamma imaging, localization ratio); format: in vivo, Sprague-Dawley CD rats; conditions: for Tc-99m-glucarate activity (mean +/- SD), ratio stroke regions to normal cerebral regions: i.v., 1.5-2.0 mCi; for DDC activity (mean +/- SD), ratio infarct:normal brain: 0.6 mCi, perfusion deficit marker
Description: Tc-99m-glucarate was used to visualize cerebral infarct regions in the rat brain.
Experimental cerebral infarcts were created in 28 Sprague-Dawley CD rats (Charles River Laboratories) by injection of thrombin-generated thrombi into an isolated carotid artery. […] Imaging was performed 1.5-2.0 hours later utilizing a gamma camera having a 3 mm diameter pin hole collimator. […] The gamma images obtained were analyzed by computer planimetry. Ratios of count densities in infarct regions and normal brain regions were calculated.

[4] = dog, listed as 99m Tc-glucarate

For ^99m Tc-D-glucoheptonate, the “success as an imaging agent for myocardial infarct” value (myocardial infarct) is given as “less successful”.
In the case of Tc-99m-glucarate, the “% 99mTc-Glucarate” value ([1]; 0.09 mg/ml glucaric acid) was 43.0%, the “% 99mTcO2” value ([1]; 0.09 mg/ml glucaric acid) was 57.0% and the “% 99mTc-Glucarate” value ([1]; 0.19 mg/ml glucaric acid) was 59.0%. For the same substance, the “% 99mTcO2” value ([1]; 0.19 mg/ml glucaric acid) was 41.0%, the “% 99mTc-Glucarate” value ([1]; 0.38 mg/ml glucaric acid) was 70.0% and the “% 99mTcO2” value ([1]; 0.38 mg/ml glucaric acid) was 30.0%. For the same substance, the “% 99mTc-Glucarate” value ([1]; 0.76 mg/ml glucaric acid) was 75.6%, the “% 99mTcO2” value ([1]; 0.76 mg/ml glucaric acid) was 24.4% and the “% 99mTc-Glucarate” value ([1]; 1.53 mg/ml glucaric acid) was 80.5%. The “% 99mTcO2” value ([1]; 1.53 mg/ml glucaric acid) was 19.5%, the “% 99mTc-Glucarate” value ([1]; 3.06 mg/ml glucaric acid) was 88.5% and the “% 99mTcO2” value ([1]; 3.06 mg/ml glucaric acid) was 11.5%. The “% 99mTc-Glucarate” value ([1]; 6.12 mg/ml glucaric acid) was 100.0%, the “% 99mTcO2” value ([1]; 6.12 mg/ml glucaric acid) was “.0%” and the “% 99mTc-Glucarate” value ([1]; 12.25 mg/ml glucaric acid) was 100.0%. The “% 99mTcO2” value ([1]; 12.25 mg/ml glucaric acid) was “.0%”, the “visualization of area of acute myocardial necrosis” value (acute myocardial infarct; dog) was “clearly visible” and the “visualization of area of acute myocardial necrosis” value (acute myocardial infarct; [4]) was “clearly visualized”. The blood pool activity (acute myocardial infarct; dog) was “minimum blood activity”, the blood pool activity (acute myocardial infarct; [4]) was “minimum blood pool activity” and the “time to avid myocardial infarct image” value (acute myocardial infarct; dogs) was “one and a half”. The “uptake in area of myocardial infarction of the heart slices” value (acute myocardial infarct; excised heart slices, dog) was “Distinct uptake”, the “Biodistribution, Blood” value ([2]; 1 hour) was 1.72 ± 0.43 % Injected Dose Per Gram and the “Biodistribution, Heart” value ([2]; 1 hour) was 0.63 ± 1.10 % Injected Dose Per Gram. The “Biodistribution, Intestine” value ([2]; 1 hour) was 2.90 ± 1.12 % Injected Dose Per Gram, the “Biodistribution, Kidneys” value ([2]; 1 hour) was 24.3 ± 4.15 % Injected Dose Per Gram and the “Biodistribution, Liver” value ([2]; 1 hour) was 1.54 ± 0.51 % Injected Dose Per Gram. For the same substance, the “Biodistribution, Lungs” value ([2]; 1 hour) was 3.90 ± 1.80 % Injected Dose Per Gram, the “Biodistribution, Muscle” value ([2]; 1 hour) was 0.32 ± 0.20 % Injected Dose Per Gram and the “Biodistribution, Spleen” value ([2]; 1 hour) was 0.44 ± 0.76 % Injected Dose Per Gram. The “Biodistribution, Stomach” value ([2]; 1 hour) was 0.935 % Injected Dose Per Gram, the “Biodistribution, Blood” value ([2]; 4 hours) was 1.26 ± 0.22 % Injected Dose Per Gram and the “Biodistribution, Heart” value ([2]; 4 hours) was 0.75 ± 1.30 % Injected Dose Per Gram. For the same substance, the “Biodistribution, Intestine” value ([2]; 4 hours) was 2.02 ± 0.90 % Injected Dose Per Gram, the “Biodistribution, Kidneys” value ([2]; 4 hours) was 28.50 ± 0.75 % Injected Dose Per Gram and the “Biodistribution, Liver” value ([2]; 4 hours) was 1.49 ± 0.08 % Injected Dose Per Gram. The “Biodistribution, Lungs” value ([2]; 4 hours) was 3.43 ± 1.35 % Injected Dose Per Gram, the “Biodistribution, Muscle” value ([2]; 4 hours) was 2.31 ± 2.98 % Injected Dose Per Gram and the “Biodistribution, Stomach” value ([2]; 4 hours) was 3.49 ± 5.10 % Injected Dose Per Gram. The “Biodistribution, Blood” value ([2]; 8 hours) was 0.90 ± 0.29 % Injected Dose Per Gram, the “Biodistribution, Heart” value ([2]; 8 hours) was 0.30 ± 0.52 % Injected Dose Per Gram and the “Biodistribution, Intestine” value ([2]; 8 hours) was 0.89 ± 0.46 % Injected Dose Per Gram. The “Biodistribution, Kidneys” value ([2]; 8 hours) was 19.20 ± 5.00 % Injected Dose Per Gram, the “Biodistribution, Liver” value ([2]; 8 hours) was 1.03 ± 0.18 % Injected Dose Per Gram and the “Biodistribution, Lungs” value ([2]; 8 hours) was 1.95 ± 1.04 % Injected Dose Per Gram. The “Biodistribution, Muscle” value ([2]; 8 hours) was 0.59 ± 0.82 % Injected Dose Per Gram, the “Biodistribution, Stomach” value ([2]; 8 hours) was 1.13 ± 0.98 % Injected Dose Per Gram and the “Biodistribution, Blood” value ([2]; 24 hours) was 0.56 ± 0.09 % Injected Dose Per Gram. For the same substance, the “Biodistribution, Intestine” value ([2]; 24 hours) was 0.58 ± 0.36 % Injected Dose Per Gram, the “Biodistribution, Kidneys” value ([2]; 24 hours) was 8.4 ± 1.74 % Injected Dose Per Gram and the “Biodistribution, Liver” value ([2]; 24 hours) was 0.42 ± 0.05 % Injected Dose Per Gram. The “Biodistribution, Lungs” value ([2]; 24 hours) was 1.52 ± 1.02 % Injected Dose Per Gram, the “Biodistribution, Muscle” value ([2]; 24 hours) was 0.68 ± 1.00 % Injected Dose Per Gram and the “Biodistribution, Stomach” value ([2]; 24 hours) was 0.39 ± 0.34 % Injected Dose Per Gram. The “stable for a period of” value [3] was “about 2 hours”, the “effect of duration of cerebral injury on localization” value (cerebral infarct; 1, 3, 5 and 24 hours, rats) was “did not appear to affect localization” and the “diffusion across the blood-brain barrier” value (cerebral infarct; imaging in the brain) was “can diffuse across the blood-brain barrier”. For the same substance, the “Tc-99m-glucarate activity (mean +/- SD), ratio stroke regions to normal cerebral regions” value (cerebral infarct; injection 1 hour after infarct, rats) was 2.98 +/- 0.7, the “Tc-99m-glucarate activity (mean +/- SD), ratio stroke regions to normal cerebral regions” value (cerebral infarct; injection 3 hours after infarct, rats) was 4.1 +/- 1.7 and the “Tc-99m-glucarate activity (mean +/- SD), ratio stroke regions to normal cerebral regions” value (cerebral infarct; injection 5 hours after infarct, rats) was 4.1 +/- 2.4. The “Tc-99m-glucarate activity (mean +/- SD), ratio stroke regions to normal cerebral regions” value (cerebral infarct; injection 24 hours after infarct, rats) was 4.8 +/- 1.9, the “accumulation in stroke compared with 99mTc-glucoheptonate” value (cerebral infarct; rats) was “more rapid and intense” and the “ratios of activity in stroke regions to normal cerebral regions, in words” value (cerebral infarct; rats) was “maximal in all stroke animals”. The “time to cerebral infarct image” value (cerebral infarct; rats) was “one” and the “visualization of cerebral infarct regions by gamma scintigraphy” value (cerebral infarct; rats) was “All cerebral infarct regions were visualized”.
For “T1-201 diethyldithiocarbamate [DDC, reference compound]”, the “DDC activity (mean +/- SD), ratio infarct:normal brain” value (cerebral infarct; 1 hour after infarct, rats) was 0.3 +/- 0.1, the “DDC activity (mean +/- SD), ratio infarct:normal brain” value (cerebral infarct; 3 hours after infarct, rats) was 0.3 +/- 0.3 and the “DDC activity (mean +/- SD), ratio infarct:normal brain” value (cerebral infarct; 5 hours after infarct, rats) was 0.4 +/- 0.2. For the same substance, the “DDC activity (mean +/- SD), ratio infarct:normal brain” value (cerebral infarct; 24 hours after infarct, rats) was 0.3 +/- 0.2.
